Test results from patent US6448265B1, “Pyrazoles and pyrazolopyrimidines having CRF antagonistic activity” (Pfizer, Inc., priority 1992, dated 2002).

| melting point [°C] | SMILES |
| --- | --- |
| 200 to 202 | COc1ccccc1C(=O)c1c(SC)nn(-c2c(Cl)cc(Cl)cc2Cl)c1N [Example 3, 5-Amino-4-(2-methoxybenzoyl)-3-methylthio-1-(2,4,6-trichlorophenyl)pyrazole] |
| 222 | Cc1nn(-c2c(Cl)cc(Cl)cc2Cl)c(N)c1C(=O)c1ccccc1Cl [Example 4, 5-Amino-4-(2-chlorobenzoyl)-3-methyl-1-(2,4,6-trichlorophenyl) pyrazole] |
